Assay results published in patent US20170315126A1, “METHOD FOR SCREENING COMPOUND SPECIFICALLY SUPPRESSING FORMATION OF CAVEOLAE OF CANCER CELLS, SCREENING KIT, VECTOR AND TRANSFORMANT TO BE USED IN KIT, AND METHOD FOR SELECTING PATIENT FOR WHOM MOLECULARLY TARGETED DRUG IS INDICATED” (NATIONAL UNIVERSITY CORPORATION NAGOYA INSTITUTE OF …, priority 2014, published 2017).

Key:
Format in all cases: cell-based, human
CAV1 [1] = experiment: Western blotting of CAV1 expression after siRNA transfection in pulmonary adenocarcinoma cell lines
Description: (§1) Western blotting analysis and IP-WB analysis were conducted by the standard methods using an Immobilon-P filter (manufactured by Millipore Corp.) and an enhanced chemiluminescence system (manufactured by GE Healthcare Inc.). pCMVpuro-Cavin-1-WT was coexpressed with various ROR1 expression constructs such as the wild type (WT), TKΔ473-564 (TKΔ1), TK564-655 (TKΔ2), TKΔ655-746 (TKΔ3), TKΔ473-655 (TKΔ1+×2), TKΔ564-746 (TKΔ2+Δ3), and TKΔ473-746 (TKA1+Δ2+A3) to identify the binding site of ROR1 and Cavin-1. pCMVpuro-CAV1-WT was coexpressed with ROR1 expression constructs such as the wild type (WT), TKΔ473-564 (TKΔ1), TKΔ564-655 (TKΔ2), TKΔ655-746 (TKΔ3), ST1Δ748-782 (ΔST1), PΔ784-851 (ΔP), and ST2Δ853 to 876 (ΔST2) to identify the binding site of ROR1 and CAV1. For these, the cells were recovered 24 hours after transfection by Fugene6 (Promega) using COS-7 cells, and IP-WB analysis was conducted.
(§2) Transfection of the siRNA (20 nM each) was conducted in accordance with the manufacturer's instruction manual using lipofectamine RNAiMAX (manufactured by Invitrogen). […] Cells were also recovered 120 hours after transfection for analysis by colorimetry to measure cell proliferation.

[2] = test system: caveolae of NCI-H1975 cells; experiment: Electron microscope analysis of caveolae by rapid freezing/freeze-fracture replica labeling; conditions: 72 hours after transfection, n=18 regions
Description: 20 μm thick gold foil was placed in a culture dish, and NCI-H1975 cells, which are a pulmonary adenocarcinoma cell line, were cultured on top. Transfection of siControl or siROR1 was conducted. Rapid freezing was conducted using a high-pressure freezing machine (Leica Inc.) 72 hours after transfection. Freeze-fracture replicas were prepared using a BAF400 apparatus (Baltec Co.), and labeled by mouse anti-CAV2 antibody (BD Transduction Co.) after treatment by SDS. A second antibody reaction was then conducted using 10 nm gold colloid-conjugated goat anti-mouse IgG antibody (British Biocell International Co.), and the cells were examined by a JEM-1011 electron microscope. For caveolae distribution density measurement, randomly selected regions under the electron microscope (18 random cell membrane regions of 17-50 μm) were measured, and the cell membrane region of each electron micrograph was measured using ImageJ.

CAV1 [3] = experiment: Western blotting of CAV1 after siROR1 treatment in cells expressing ROR1 wild type or mutants with silent mutation; conditions: three days
Description: In vitro mutagenesis was conducted using KOD-plus-DNA polymerase (Toyobo), and pCMVpuro-ROR1-WTm (siROR1) and pCMVpuro-ROR1-KDm (siROR1) including silent mutations for siROR1 were prepared. Following primer of not involving amino acid substitution was used for production.
Wild type ROR1 (ROR1-WT), wild type ROR1 with an added silent mutation for siROR1 (ROR1-WTm), or kinase activity-deficient ROR1 with a silent mutation for siROR1 added (ROR1-KDm) were transfected into NCI-H1975 cells. Selection by puromycin (1.5 μg/mL) was performed after 24 hours, and the single clones were collected, and stable clones that expressed the respective ROR1 (constitutive ROR1-expressing cell lines) were prepared. These stable clones were then treated by siControl or siROR1, and the cells were recovered after three days and Western blotting analysis was conducted.
In vitro mutagenesis was conducted using KOD-plus-DNA polymerase (Toyobo), and pCMVpuro-ROR1-WTm (siROR1) and pCMVpuro-ROR1-TKA2+TKA3m (siROR1) including silent mutations for siROR1 were prepared. Following primer of not involving amino acid substitution was used for production.
(§3) Wild type ROR1 (ROR1-WT), wild type ROR1 with an added silent mutation for siROR1 (ROR1-WTm), or cavin-1 binding region-deficient ROR1 with an added silent mutation for siROR1 (ROR1-TKA2+TKA3m) were transfected into PC-9 cells. Selection by puromycin (1.0 μg/mL) was performed after 24 hours, and the cells were recovered as bulk clones and reseeded in 6-well plates. The cells were then treated by siControl or siROR1, recovered after three days, and Western blotting analysis was conducted.
In vitro mutagenesis was conducted using KOD-plus-DNA polymerase (Toyobo), and pCMVpuro-ROR1-WTm (siROR1) and pCMVpuro-ROR1-AS/T2m (siROR1) including silent mutations for siROR1 were prepared. Following primer of not involving amino acid substitution was used for production.
as §3, with “CAV1” for “cavin-1”, “(ROR1-ΔS/T2m)” for “(ROR1-TKA2+TKA3m)”

ROR1 = experiment: Western blotting of changes over time in ROR1 expression after siROR1 transfection; conditions: NCI-H1975; 24 hours after transfection
Description: as §1, §2

CAV1 and Cavin-1 = experiment: IP-WB analysis of binding of endogenous CAV1 and Cavin-1 under ROR1 silencing; conditions: NCI-H1975 cell extract 24 hours after transfection
Description: as §1
In addition, IP-WB analysis was conducted after suspending the cells in lysis buffer containing octyl glucoside (10 mM Tris-HCl (pH 8.0), 0.15 M NaCl, 5 mM EDTA, 1% Triton X-100, 60 mM octyl glucoside) using NCI-H1975, NCI-H358, and SK-LU-1 cell lines, which are pulmonary adenocarcinoma cell lines, to confirm the binding of ROR1 and Cavin-1, ROR1 and CAV1, or Cavin-1 and IGF-IR.

## siROR1: RNA oligomer for RNAi against human ROR1, 5′-CAGCAAUGGAUGGAAUUUCAA-3′ (SEQ ID No: 13) (listed as RNA, further chemistry not given here)
CAV1 [1]; NCI-H441, NCI-H358 and PC-9, siRNA 20 nM, 72 hours after transfection
  CAV1 expression (Western blot): downregulation of CAV1 was found
CAV1 [1]; NCI-H1975, after 48 hours
  CAV1 expression (Western blot): downregulation of CAV1 was seen
[2]
  number of normal caveolae in random regions on the cell membrane: decreases significantly
CAV1 [3]; NCI-H1975 stable clones expressing ROR1-KDm (kinase activity-deficient, silent mutation)
  CAV1 expression (Western blot): downregulation of CAV1 was not seen
CAV1 [3]; NCI-H1975 stable clones expressing ROR1-WT
  CAV1 expression (Western blot): downregulation of CAV1
CAV1 [3]; NCI-H1975 stable clones expressing ROR1-WTm (silent mutation against siROR1)
  CAV1 expression (Western blot): downregulation of CAV1 was not seen
CAV1 [3]; PC-9 transfected with ROR1-AS/T2m (CAV1 binding region deleted, silent mutation)
  CAV1 expression (Western blot): expression of CAV1 was lowered
CAV1 [3]; PC-9 transfected with ROR1-TKA2+TKA3m (cavin-1 binding region deleted, silent mutation)
  CAV1 expression (Western blot): expression of CAV1 was lowered
ROR1
  ROR1 expression (Western blot): lowered the expression of ROR1
CAV1 and Cavin-1
  binding of endogenous CAV1 and Cavin-1 (IP-WB): decreases the binding
